Laboratory results from US8889670B2, “Heterocyclic compounds which modulate the CB2 receptor” (Boehringer Ingelheim International GmbH, priority 2009, dated 2014).
Read-outs that look alike come from different tables or passages of the source.

Molecular target: T1, human CB2R (Homo sapiens, UniProt P34972)
T1 construct: host or cells: CHO cells
Assay: CB2R mediated modulation of cAMP synthesis (forskolin-stimulated cAMP, CHO cells expressing human CB2R)
Type: cell-based
Method in brief: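 cAMP measured with the DiscoverX-XS kit after 30 min, 37° C. compound exposure of human CB2R-expressing CHO cells stimulated by 10 uM forskolin (1 mM IBMX, 0.25% BSA).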

[1] = agonist EC50, inhibition of forskolin-stimulated cAMP synthesis, CHO cells expressing human CB2R, mean, read-out: CB2 CAMP @ EC50 nM (mean)

T1 sequence (P34972 whole entry): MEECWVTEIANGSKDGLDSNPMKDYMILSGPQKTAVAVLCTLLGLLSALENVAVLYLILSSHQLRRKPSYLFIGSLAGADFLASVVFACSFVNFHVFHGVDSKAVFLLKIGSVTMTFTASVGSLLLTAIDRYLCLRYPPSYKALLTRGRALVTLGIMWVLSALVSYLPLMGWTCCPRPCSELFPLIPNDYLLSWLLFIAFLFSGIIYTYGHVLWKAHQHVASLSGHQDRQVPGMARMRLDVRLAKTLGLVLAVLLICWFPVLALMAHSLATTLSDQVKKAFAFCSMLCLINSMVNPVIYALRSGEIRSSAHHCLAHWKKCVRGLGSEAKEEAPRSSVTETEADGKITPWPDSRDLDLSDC

SMILES | EC50 [1] [nM] | EC50 [nM]
CCn1nc(NC(=O)[C@@H]2CCCCN2C(=O)N2CCS(=O)(=O)CC2)nc1-c1ccccc1 [(S)-1-(1,1-Dioxo-1λ^6-thiomorpholine-4-carbonyl)-piperidine-2-carboxylic acid (1-ethyl-5-phenyl-1H-1,2,4-triazol-3-yl)-amide] | 135 | 
CC(C)(C)c1coc(NC(=O)[C@@H]2CCCCN2CC2CCOCC2)n1 [(S)-1-(Tetrahydro-pyran-4-ylmethyl)-piperidine-2-carboxylic acid (4-tert-butyl-oxazol-2-yl)-amide] |  | 2.4
CC(C)(C)c1cc(NC(=O)[C@@H]2CCCCN2C(=O)C2CCC(F)(F)CC2)on1 [(S)-1-(4,4-Difluoro-cyclohexanecarbonyl)-piperidine-2-carboxylic acid (3-tert-butyl-isoxazol-5-yl)-amide] |  | 1
CC(C)(C)c1cc(NC(=O)[C@@H]2CCCN(c3ncc(C(F)(F)F)cc3Cl)C2)no1 [(R)-3′-Chloro-5′-trifluoromethyl-3,4,5,6-tetrahydro-2H-[1,2′]bipyridinyl-3-carboxylic acid (5-tert-butyl-isoxazol-3-yl)-amide] |  | 54
CC(C)(C)c1cc(NC(=O)[C@@H]2CCCCN2C(=O)C2CCCC2)no1 [(S)-1-Cyclopentanecarbonyl-piperidine-2-carboxylic acid (5-tert-butyl-isoxazol-3-yl)-amide] |  | 14
CC(C)(C)c1cc(NC(=O)C2CCCN(C(=O)N3CCS(=O)(=O)CC3)C2)no1 (stereo not drawn) [1-(1,1-Dioxo-1λ6-thiomorpholine-4-carbonyl)-piperidine-3-carboxylic acid (5-tert-butyl-isoxazol-3-yl)-amide] | 215 | 
CC(C)(C)c1nsc(NC(=O)[C@@H]2CCCCN2CC2CCOCC2)n1 [(S)-1-(Tetrahydro-pyran-4-ylmethyl)-piperidine-2-carboxylic acid (3-tert-butyl-1,2,4-thiadiazol-5-yl)-amide] |  | 12
CCC(C)c1cc(NC(=O)[C@@H]2CCCCN2C(=O)N2CCS(=O)(=O)CC2)on1 (stereo partly drawn) [(S)-1-(1,1-Dioxo-1λ^6-thiomorpholine-4-carbonyl)-piperidine-2-carboxylic acid (3-sec-butyl-isoxazol-5-yl)-amide] | 105 | 
CC(C)(C)c1cc(NC(=O)[C@@H]2CCCCN2C(=O)c2cccc(Cl)c2)no1 [(S)-1-(3-Chloro-benzoyl)-piperidine-2-carboxylic acid (5-tert-butyl-isoxazol-3-yl)-amide] |  | 44
CC(C)(C)c1cc(NC(=O)[C@@H]2CCCCCN2CC2CCOCC2)no1 [(S)-1-(Tetrahydro-pyran-4-ylmethyl)-azepane-2-carboxylic acid (5-tert-butyl-isoxazol-3-yl)-amide] |  | 0.03
CC(C)(C)c1cc(NC(=O)C2COCCN2S(=O)(=O)c2ccc(Cl)cc2)no1 (stereo not drawn) [4-(4-Chloro-benzenesulfonyl)-morpholine-3-carboxylic acid (5-tert-butyl-isoxazol-3-yl)-amide] |  | 34
CC(C)(C)c1cc(NC(=O)[C@@H]2CCCCN2c2ncc(C(F)(F)F)cc2Cl)no1 [(S)-3′-Chloro-5′-trifluoromethyl-3,4,5,6-tetrahydro-2H-[1,2′]bipyridinyl-2-carboxylic acid (5-tert-butyl-isoxazol-3-yl)-amide] |  | 0.18
CC(C)(C)c1cc(NC(=O)C2CCCN(Cc3ccc(Cl)cc3)C2)no1 (stereo not drawn) [1-(4-Chloro-benzyl)-piperidine-3-carboxylic acid (5-tert-butyl-isoxazol-3-yl)-amide] |  | 2.7
CCc1sc(NC(=O)[C@@H]2CCCCN2CC2CCOCC2)nc1-c1ccccc1 [(S)-1-(Tetrahydro-pyran-4-ylmethyl)-piperidine-2-carboxylic acid (5-ethyl-4-phenyl-thiazol-2-yl)-amide] | 0.55 | 
CC(C)(C)c1cc(NC(=O)C2CCCN(S(=O)(=O)c3ccc(Cl)cc3)C2)no1 (stereo not drawn) [1-(4-Chloro-benzenesulfonyl)-piperidine-3-carboxylic acid (5-tert-butyl-isoxazol-3-yl)-amide] |  | 12
